Laboratory results as given in patent US4075341A, “2-Substituted phenyl-5-triazols [5,1-a] isoquinoline compounds” (Gruppo Lepetit S.p.A., priority 1975, dated 1978).

Test system: carrageenin induced edema
Assay: carrageenin test in rats (anti-inflammatory activity)
Format: in vivo
Conditions: Rattus norvegicus, po; 100 mg./kg. p.o.
Excerpt: The anti-inflammatory activity of some inventive compounds was evidenced by means of the carrageenin test in rats.

NC(=O)Nc1nc2n(n1)CCc1ccccc1-2 [Example 54, 2-Ureido-5,6-dihydro-s-triazolo[5,1-a]isoquinoline] was tested, and the inhibition at 100 mg/kg was about 35%.
